Results taken from the supplement of paper PMC10307832.

How the values were obtained:
Experiment in all cases: relative viability (nuclei count vs DMSO), 5 days (fraction); higher = more cells survive
[1] = compound: CN1C=C(C2=CC=CC=C21)/C=C\3/C4=C(C=CC=N4)NC3=O + CC(=O)c1c(C)c2cnc(Nc3ccc(N4CCNCC4)cn3)nc2n(C2CCCC2)c1=O [Palbociclib] (partner 0.5 µM)
Summary of the method: (§1)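 Lung cancer cell lines in 1536-well plates got either a single drug or a fixed anchor-drug dose together with five library-drug doses (not always all listed) in √10 steps, by pin tool, on the day after seeding. Nuclei were counted after 5 days, and relative viability is the treated-to-vehicle ratio of nuclei counts. Values are medians of duplicate plates.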

[2] = compound: CN1C=C(C2=CC=CC=C21)/C=C\3/C4=C(C=CC=N4)NC3=O + C[C@]1(O)C[C@@H](c2nc(-c3ccc4ccc(-c5ccccc5)nc4c3)c3c(N)nccn32)C1 [Linsitinib] (partner 1 µM)
Summary of the method: as §1

[3] = compound: CN1C=C(C2=CC=CC=C21)/C=C\3/C4=C(C=CC=N4)NC3=O + CS(=O)(=O)CCNCc1ccc(-c2ccc3ncnc(Nc4ccc(OCc5cccc(F)c5)c(Cl)c4)c3c2)o1 [Lapatinib] (partner 2 µM)
Summary of the method: as §1

[4] = compound: CN1C=C(C2=CC=CC=C21)/C=C\3/C4=C(C=CC=N4)NC3=O + O=C(c1cc(Cc2n[nH]c(=O)c3ccccc23)ccc1F)N1CCN(C(=O)C2CC2)CC1 [Olaparib] (partner 8 µM)
Summary of the method: as §1

Cell Line	relative viability ([1]; first compound 0.02 µM)	relative viability ([1]; first compound 0.06325 µM)	relative viability ([1]; first compound 0.2 µM)	relative viability ([1]; first compound 0.6325 µM)	relative viability ([1]; first compound 2 µM)	relative viability ([2]; first compound 0.02 µM)	relative viability ([2]; first compound 0.06325 µM)	relative viability ([2]; first compound 0.2 µM)	relative viability ([2]; first compound 0.6325 µM)	relative viability ([2]; first compound 2 µM)	relative viability ([3]; first compound 0.02 µM)	relative viability ([3]; first compound 0.06325 µM)	relative viability ([3]; first compound 0.2 µM)	relative viability ([3]; first compound 0.6325 µM)	relative viability ([3]; first compound 2 µM)	relative viability ([4]; first compound 0.02 µM)	relative viability ([4]; first compound 0.06325 µM)	relative viability ([4]; first compound 0.2 µM)	relative viability ([4]; first compound 0.6325 µM)	relative viability ([4]; first compound 2 µM)
NCI-H1793	0.322	0.39	0.285	0.275	0.296	1	1.06	0.748	0.95	0.884	0.912	0.787	0.646	0.448	0.799	0.678	0.813	0.72	0.817	0.63
NCI-H1355	0.303	0.369	0.387	0.476	0.517	0.702	0.748	0.73	0.56	0.632	0.952	0.784	0.7	0.637	0.646	0.558	0.678	0.717	0.469	0.574
COR-L23	0.314	0.292	0.28	0.237	0.299	0.924	0.967	0.865	1.03	0.865	0.973	0.92	1.16	0.923	1.12	0.349	0.289	0.274	0.283	0.312
HCC-44	0.902	0.959	0.956	0.934	0.913	0.577	0.637	0.651	0.593	0.604	0.912	0.963	0.928	0.834	0.9	0.908	0.954	1.02	0.997	0.942
A-427	0.577	0.492	–	0.514	0.572	1.06	1.07	–	1.15	1.12	0.972	1.04	–	0.998	1.07	0.708	0.606	–	0.71	0.76
NCI-H520	0.261	0.227	0.219	0.218	0.218	0.87	0.808	0.963	0.96	1.02	0.741	0.86	0.841	0.981	0.937	0.298	0.369	0.312	0.342	0.363
LXF-289	0.589	0.593	0.626	0.656	0.775	0.901	0.935	1.04	1	0.999	0.889	0.882	0.905	0.911	0.884	1.09	0.998	1.19	1.07	1.1
NCI-H2087	0.243	0.178	0.229	0.199	0.237	0.82	0.708	1.02	0.944	1.23	1.28	0.757	0.968	0.949	1.07	0.513	0.56	0.62	0.511	0.653
CAL-12T	0.501	0.411	0.411	0.419	0.499	0.821	0.787	0.809	1.05	0.809	0.652	0.625	0.574	0.717	0.839	0.729	0.587	0.617	0.75	0.625
PC-14	0.539	0.536	0.55	0.617	0.545	0.95	0.933	0.988	0.929	0.96	0.262	0.289	0.256	0.275	0.315	0.213	0.237	0.197	0.235	0.251
NCI-H1915	0.489	0.511	0.533	0.598	0.721	1.07	1.1	1.08	1.12	1.06	0.921	0.98	0.898	1.09	1.05	0.259	0.257	0.28	0.304	0.257
NCI-H647	0.367	0.354	0.292	0.37	0.348	0.933	0.922	0.896	1.2	1.1	1.06	0.995	0.679	0.949	1.27	0.262	0.426	0.446	0.395	0.458
NCI-H322M	0.451	0.458	0.487	0.498	0.5	1.01	0.993	0.874	0.819	0.862	0.566	0.631	0.597	0.548	0.631	0.766	0.717	0.718	0.961	0.923
BEN	0.453	0.409	0.465	0.48	0.49	0.847	0.996	0.823	0.875	1.03	0.685	0.718	0.559	0.585	0.785	1.01	0.91	0.885	1.14	1.24
NCI-H2009	0.189	0.198	0.202	0.198	0.201	1.24	1.11	1.23	1.23	1.25	0.996	0.965	1.02	0.947	0.898	0.598	0.636	0.703	0.677	0.604
LC-2-ad	0.527	0.468	0.506	0.462	0.47	0.743	0.83	0.766	0.864	0.765	0.834	0.935	0.89	1.05	1	0.658	0.705	0.722	0.72	0.663
NCI-H1437	0.344	0.34	0.292	0.32	0.318	1.06	1.12	1.25	1.18	1.2	0.837	0.842	0.708	0.841	0.938	0.628	0.644	0.657	0.681	0.658

Cell Line	relative viability ([1]; first compound 0.02 µM)	relative viability ([1]; first compound 0.06325 µM)	relative viability ([1]; first compound 0.2 µM)	relative viability ([1]; first compound 0.6325 µM)	relative viability ([1]; first compound 2 µM)	relative viability ([2]; first compound 0.02 µM)	relative viability ([2]; first compound 0.06325 µM)	relative viability ([2]; first compound 0.2 µM)	relative viability ([2]; first compound 0.6325 µM)	relative viability ([2]; first compound 2 µM)	relative viability ([3]; first compound 0.02 µM)	relative viability ([3]; first compound 0.06325 µM)	relative viability ([3]; first compound 0.2 µM)	relative viability ([3]; first compound 0.6325 µM)	relative viability ([3]; first compound 2 µM)	relative viability ([4]; first compound 0.02 µM)	relative viability ([4]; first compound 0.06325 µM)	relative viability ([4]; first compound 0.2 µM)	relative viability ([4]; first compound 0.6325 µM)	relative viability ([4]; first compound 2 µM)
NCI-H3122	0.137	0.181	0.202	0.183	0.235	0.895	0.972	1.01	1.06	1.04	0.928	0.934	0.952	1.06	1.02	0.621	0.578	0.653	0.681	0.652
NCI-H727	0.63	0.575	0.653	0.652	0.623	0.285	0.204	0.282	0.323	0.263	0.757	0.688	0.428	0.914	0.767	0.76	0.729	0.67	0.688	0.635
NCI-H1734	0.316	0.372	–	0.334	0.345	0.803	0.853	–	1.09	0.889	1.01	1.01	–	1.02	1.08	0.355	0.596	–	0.588	0.631
HCC-15	0.708	0.733	0.724	0.685	0.746	0.907	0.841	0.933	0.853	0.976	0.827	0.71	0.903	0.886	0.932	0.716	0.679	0.733	0.713	0.837
NCI-H2405	0.576	0.526	0.524	0.535	0.541	0.871	0.912	0.783	0.954	0.816	1.03	1.02	0.749	1.06	1.03	0.854	0.843	0.729	0.87	0.804
NCI-H1993	0.606	0.594	0.656	0.455	1.19	0.539	0.635	0.71	0.765	0.621	0.694	0.497	0.83	0.788	0.909	0.781	1.09	1.06	0.972	0.966
NCI-H460	0.209	0.153	0.0627	0.103	0.157	0.8	0.838	0.789	–	0.906	1.11	1.06	1.09	–	1.23	0.463	0.417	0.491	0.435	0.367
NCI-H1651	0.563	0.492	0.554	0.5	0.542	0.958	0.989	1.03	1.06	1.05	1.02	1.09	0.761	0.836	1.09	0.18	0.164	0.182	0.197	0.217
NCI-H1975	0.623	0.361	0.45	0.442	0.504	0.921	1.04	0.982	0.694	0.661	0.839	0.929	0.775	0.903	0.77	0.803	0.737	0.674	0.61	0.47
NCI-H2126	0.325	0.31	0.348	0.319	0.326	0.739	0.751	0.727	0.745	0.65	0.678	0.796	0.671	0.748	0.674	0.888	0.853	0.919	0.971	0.883
201T	0.321	0.359	0.377	0.35	0.323	0.993	1.05	0.967	1.09	0.786	0.993	1.05	1.04	1.06	1.04	0.821	0.781	0.868	0.931	0.87
HCC-78	0.356	0.426	0.364	0.48	0.437	0.444	0.51	0.233	0.423	0.487	0.965	0.288	0.46	0.53	0.689	0.78	0.773	0.688	0.754	0.818
NCI-H358	0.147	0.152	0.123	0.13	0.138	0.632	0.643	0.881	0.795	0.686	0.46	0.419	0.436	0.55	0.446	0.607	0.534	0.564	0.565	0.507
SK-LU-1	0.282	0.367	0.369	0.342	0.399	0.838	0.894	1.15	1.09	1.14	0.662	0.788	0.854	0.886	1.2	0.424	0.43	0.406	0.444	0.602
H3255	0.33	0.327	0.309	0.317	0.296	1.06	0.989	0.945	0.816	1.11	0.267	0.269	0.205	0.232	0.209	0.64	0.554	0.55	0.606	0.602
LOU-NH91	0.427	0.524	0.512	0.506	0.51	0.858	0.889	0.851	0.928	0.927	0.578	0.577	0.59	0.601	0.668	0.906	0.871	0.883	0.841	0.901
